Reference: patent publication US20240287553A1, “Methods of Production of Double Unsaturated Pheromones Using Metabolic Pathways” (ISCA Technologies, Inc., priority 2022, published 2024)
Entries after “also recorded” stand apart in the source; their conditions may differ.

Legend:
[1] = test system: antennae of male P. interpunctella; assay: GC-EAD electrophysiology of yeast-produced pheromone, male Plodia interpunctella antennae; conditions: extracts of yeast cell pellet and medium
Description: (§1) Insect rearing and tissue collection. The E. cautella individuals were reared on an artificial diet at 25±2.0° C. under an L16:D8 photoperiod as previously described in the field. Freshly emerged female adults were collected daily before the scotophase and considered to be 0 d old. The female pupae were collected separately, and the newly emerged adults were maintained in a vial under the same conditions. Laboratory cultures of S. exigua and P. interpunctella were reared at 23±1° C. under a 17:7 L:D photoperiod and 60% relative humidity and fed on wheat-germs based and beans based artificial diet, respectively. The male and female pupae were kept separately. Adults were fed with a 10% honey solution, and two- to three-day-old unmated males were used for the electrophysiological experiments.
Electrophysiology of ZETA yeast produced pheromone. The antennal electrophysiological activity of the yeast-derived pheromone was tested by gas chromatography with electroantennographic detection (GC-EAD). An Agilent 7890 gas chromatograph equipped with a flame ionization detector (FID), an HP-INNOWax column (30 m×0.25 mm i.d., and 0.25 μm film thickness; J&W Scientific, USA) was used. Antennae of male S. exigua and P. interpunctella with both tips cut-off and associated with the head were mounted on a PRG-2 EAG (10× gain) probe (Syntech, Kirchzarten, Germany) using conductive gel (Blågel, Cefar, Malmö, Sweden). The antennal preparation was put in a flow of charcoal-filtered and humidified air that passed through the column outlet. Hydrogen was used as the carrier gas with a constant flow of 1.8 mL/min, and the GC effluent was directed to the FID and EAD by a 1:1 division. The GC inlet was set at 250° C., the transfer line was set at 255° C., and the detector was set at 280° C. The GC oven was programmed from 80° C. for 1 min, then increased to 210° C. at a rate of 10° C./min and held for 10 min. Data were collected with the software GC-EAD Pro Version 4.1 (Syntech).

[2] = test system: antennae of male S. exigua; assay: GC-EAD electrophysiology of yeast-produced pheromone, male Spodoptera exigua antennae; conditions: extracts of yeast cell pellet and medium
Description: as §1
Electrophysiology of ZETA yeast produced pheromone. The antennal electrophysiological activity of the yeast-derived pheromone was tested by gas chromatography with electroantennographic detection (GC-EAD). An Agilent 7890 gas chromatograph equipped with a flame ionization detector (FID), an HP-INNOWax column (30 m×0.25 mm i.d., and 0.25 μm film thickness; J&W Scientific, USA) was used. […]

Row | Compound | antennal response (EAD) [1] | antennal response (EAD) [2]
1 | CCCCCCCCCCCCCCOC(C)=O [tetradecanyl acetate] | minor response | –
2 | CCCC/C=C\CCCCCCCCOC(C)=O [Z9-14:OAc, (Z)-9-tetradecenyl acetate] | responded strongly | responded strongly
3 | C/C=C/C/C=C\CCCCCCCCOC(C)=O [ZETA, (Z,E)-9,12-tetradecadienyl acetate] | distinct antennal responses; also recorded: responded strongly; also recorded: typical antennal responses | distinct antennal responses; also recorded: responded strongly; also recorded: typical antennal responses
